Measured values taken from US6602487B1, “Methods and tests for producing and for inhibiting coronary artery vasospasms” (Dimera Incorporated, priority 1997, dated 2003).
Several values for one entry are separate records, joined by “and”; a condition that tells them apart may be missing. Equal values may be shown once. Entries after “also recorded” stand apart in the source; their conditions may differ. Read-outs that look alike come from different tables or passages of the source.

Columns and labels:
coronary arteries [1] = assay: Mechanical injury coronary vasospasm protocol (Protocol 2); type: in vivo, rhesus monkeys (Macaca mulatta); settings: for Spasms/N: number of animals with vasospasm / number of animals; for ED50 (-log mol/liter): syringe concentration of the named vasoconstrictor causing 50% reduction of diameter from control, combined stimuli with 100 μmol/liter serotonin
Text: A separate mechanical injury, Protocol 2, was used in three additional monkeys (one male, two ovx). The injury step of Protocol 2, was deliberate mechanical stretching of the LAD or left main coronary artery with a 5F catheter.
In Protocol 2, steps 1-5 were the same as in Protocol 1. The remaining steps were as follows:
7. IC injection of angiotensin II (sequential doses to 10 μmol/liter);
8. Injury by stretching the coronary artery with a 5F catheter;
9. IC injection of serotonin (sequential doses to 1 mmol/liter);
10. IC injection 15 minutes later with 1 or 10 μmol/liter nitrendipine or Ro 40-5967 (mibefradil);
11. IC injection of […] (sequential doses to 10 μmol/liter); and
12. IC injection 15 minutes later with 1 or 10 μmol/liter nitrendipine or Ro 40-5967.
Putative coronary vasospasm stimuli were judged primarily by actions on large coronary artery diameters, analyzed as diameter of the most proximal focus of vasospasm at end-diastole from video-taped images recorded at 30 frames/s. We used the image analysis program Image Pro to measure the diameters from single frames acquired with an Imagraph frame grabber in a Pentium computer. We used the 3F catheter tip radio-opaque marker ring (1.0 mm) for calibration and determined minimal and maximal diameters just distal to the constriction. All responses to interventions were also X-ray imaged immediately (15 to 30 s after injection) and at exactly 3 minutes (and 15 minutes if there was vasospasm) after injection.

coronary arteries [2] = settings: for EC50: read-out: estimated ET1 EC50, responsive ovx monkeys; for coronary vasospasm on IC injection (no mechanical injury): serotonin 6.7 or 200 μmol/liter alone, U46619 6.7 to 2,000 nmol/liter alone, AII up to 200 nmol/liter, combination 6.7 μmol/liter serotonin and 67 nmol/liter U46619, triple combination with ET1
coronary arteries [3] = assay: Drug-induced (S+U) coronary vasospasm in ovariectomized monkeys with E2 plus P or MPA implants; type: in vivo, rhesus monkeys (Macaca mulatta)
Experimental: Twelve rhesus monkeys (Macaca mulatta), aged 8 to 16 years and with weights of 5-7 kg, were ovariectomized at least 3 months prior to beginning of the study and selected randomly for one of two treatments. After documenting the lack of cardiovascular disease or previous exposure to atherogenic diet and after a normal physical examination (including blood chemistry), monkeys received subdermal sylastic implants containing 200 mg of E2. Two weeks later, sylastic implants containing either 400 mg of P or 400 mg of MPA were additionally implanted. All steroids were purchased from Steraloids (Wilton, N.H.). Both estrogen and progestin implants, providing sustained release steroids, remained in place through the catheterization study 6 weeks after beginning the study. Venous blood sample (5 ml) were collected just prior to beginning the study at weekly intervals for measurements of serum levels of E2, P, and MPA. Target levels of 80-160 pg/ml for E2, 4000-8000 pg/ml for P, and 400-800 pg/ml for MPA were based on levels that are effective by reproductive system indices in women and monkeys. Levels were measured in blood serum at catheterization by specific radio-immunoassays.
Angiography was carried out under isoflurane (0.75-1.25%) general anesthesia with 70% O2 and 30% N2O, and body temperature supported with a heating pad. After ketamine sedation (10 mg/kg) and endotracheal tube placement, both femoral arteries were cannulated for simultaneous measurement of systemic blood pressure and coronary catheterization. Intravenous anticoagulation with 1000 units of heparin and fluid replacement with 75-150 ml of lactated Ringer's solution, and if needed 10-50 ml of dextran, to reach a minimum control diastolic blood pressure of 60 mm Hg.
Coronary arteries (left anterior descending or left circumflex) of the monkeys were catheterized and agents injected as described above in Example 1.
Statistical analysis was carried out by Student's t-test (non-paired) or Chi-square, with the p<0.05 level accepted as significant.
All monkeys were treated with estradiol 17β via sylastic implants for the entire treatment period. P or MPA was added during the last 2 weeks as a second sylastic implant, to simulate the luteal phase (P) or hormone replacement therapy (MPA). All steroid implants were left in place, including during angiography. Steroid measurements were made by RIA on serum samples taken just before angiography. Indicates significant differences between P and MPA at p 0.05 (N=6 for each group).

[4] = system: coronary artery vascular muscle cells (VMC); assay: Subcellular Ca2+ and PKC localization and contraction of coronary VMC stimulated with serotonin plus U46619; type: cell-based, rhesus monkeys
Text: Single VMCs from the left anterior descending, circumflex, and right coronary arteries of adult rhesus monkeys were isolated and studied both as freshly dispersed and as primary cultures. The short-term primary cultured cells (never passaged) maintain the characteristics of the source tissue for 2 3 weeks, including contraction, relaxation, receptors, and membrane electrical properties. VMCs were dissociated with collagenase and protease enzymes in a potassium glutamate solution (KG) that prevent loading with Na^+, Ca^2+, or Cl^− and results in a high proportion of viable, contracting cells (Self, D. A., et al., J. Vasc. Res. 31:359-366 (1994); Rusch., N. J., et al., Physiology and Pathophysiology of the Heart, 999-1010 (1995)). The cells prepared for culture were seeded at low density in cardiovascular culture solution for mammals, fifth generation (CV5M) on glass coverslips to facilitate selection of individual cells. VMC were used for experiments 7-14 days after attaching to coverslips.
Freshly dispersed or primary cultured VMCs on glass coverslips were placed in a chamber of laminar flow design and observed with a Zeiss Plan Neofluar 25×/0.80 water immersion objective. Ionic solution for mammals version 2 (ISM2) was continuously pumped through the chamber (at 1 ml/minute) to provide continuous equilibration and washout of drugs. After a 15 minutes equilibration period, VMC were loaded for 15 minutes at room temperature with 3 μM fluo 3 (Molecular Probes, Inc.) for sensing Ca^2− and for 10 minutes with […] hypericin (LC Laboratories) for reporting PKC. Individual VMC were stimulated by adding 20 μl of 10 μM serotonin plus 100 nM U46619 over the individual cell. After 15 seconds under no-flow conditions, continuous flow of ISM2 was reinstated and a chamber volume of approximately 300 μl was maintained. Fluorescent images were taken at 1, 2, 5, 10, 15, 20 and 30 minutes after stimulation for Ca^2+ and at 3, 4, 9, 16, 21 and 31 minutes for PKC to evaluate subcellular distribution of these signals, and to determine VMC contraction.
ISM2 contains (in mM): 100 NaCl, 4 NaHCO3, 0.5 NaH2PO4, 4.7 KCl, 1.8 CaCl2, 0.41 […], 50 HEPES (pH 7.37), and 5.5 dextrose, KG solution consists of (in mM); 140 K-glutamate, 16 NaHCO3, 0.5 NaH2PO4, 30 HEPES, and 16.5 dextrose at pH 7.3. CVSM consists of. 4.0 mM L-glutamine, 10 μg/ml ciprofloxacin (Miles Pentex/Bayer Corporation), 50 mM HEPES (pH 7.3), and 16 mM NaHCO3 dissolved in 85% MEM-Earle's'salts and 15% horse serum. Phenol red, known to have estrogenic activity, was omitted from all solutions.
As discussed above, the monkeys were implanted with subdermal sylastic tubing containing estrogen (E) progesterone (P) or MPA. The first step in each of the three groups was to implant sylastic tubing containing E. Two weeks later, either P or MPA were additionally implanted and maintained for another 4 weeks (6 weeks total). In the withdrawal (W) group, the E tube was withdrawn, and no tubes were implanted for the last 4 weeks.

[5] = angiographic example, one MPA monkey
[6] = minimum, 5-20 minutes after IC S + U

## CC[C@H](C)[C@H](NC(=O)[C@H](CC(=O)O)NC(=O)[C@H](CC(C)C)NC(=O)[C@H](Cc1c[nH]cn1)NC(=O)[C@@H]1CSSC[C@H](N)C(=O)N[C@@H](CO)C(=O)N[C@H]2CSSC[C@H](NC(=O)[C@H](CCC(=O)O)NC(=O)[C@H](CCCCN)NC(=O)[C@H](CC(=O)O)NC(=O)[C@H](CCSC)NC(=O)[C@H](CC(C)C)NC(=O)[C@H](CO)NC(=O)[C@H](CO)NC2=O)C(=O)N[C@@H](C(C)C)C(=O)N[C@@H](Cc2ccc(O)cc2)C(=O)N[C@@H](Cc2ccccc2)C(=O)N1)C(=O)N[C@H](C(=O)N[C@@H](Cc1c[nH]c2ccccc12)C(=O)O)[C@@H](C)CC [Endothelin 1]
Coronary arteries [1]; Protocol 2
  Spasms/N: 0/3
  ED50 (-log mol/liter): 8.5 -log mol/liter
Coronary arteries [2]; with 6.7 μmol/liter serotonin
  EC50: 0.067 nM
Coronary arteries [2]; without serotonin
  EC50: 0.2 nM

## Angiotensin II: vasoconstrictor angiotensin-II (DRVYIHPF; Angiotensin-2; UniProt P01019 25-32, looked up)
Coronary arteries [1]; Protocol 2, estimated actual coronary artery blood concentration based on 15-fold dilution
  EC50 (-log mol/liter): 6.8 -log mol/liter
Coronary arteries [1]; Protocol 2
  Spasms/N: 0/3
  ED50 (-log mol/liter): 5.5 -log mol/liter
Coronary arteries [2]; Angiotensin II up to 200 nmol/liter IC
  systemic blood pressure: did increase systemic blood pressure
Coronary arteries [2]
  coronary vasospasm on IC injection (no mechanical injury): did not cause vasospasm

## CCCCC[C@H](O)/C=C/[C@@H]1[C@@H](C/C=C\CCCC(=O)O)[C@H]2CO[C@@H]1C2 [U46619]
Coronary arteries [1]; serotonin 67 μmol/liter IC, U46619 67 nmol/liter or 1 nmol/liter, ET1 ≦10 nmol/liter, AII ≦10 μmol/liter
  coronary vasospasm with mechanical injury (5F catheter stretch): caused another vasospasm; also recorded: Vasospasm was stimulated
Coronary arteries [2]; Protocol 1, estimated actual coronary artery blood concentration based on 15-fold dilution
  EC50 (-log mol/liter): 6.8 -log mol/liter
Coronary arteries [2]; Protocol 1, number of animals with vasospasm / number of animals
  Spasms/N: 0/8
Coronary arteries [2]; Protocol 1, syringe concentration of the named vasoconstrictor causing 50% reduction of diameter from control, combined stimuli with 100 μmol/liter serotonin
  ED50 (-log mol/liter): 5.5 -log mol/liter
Coronary arteries [2]; serotonin 67 nmol/liter to 667 μmol/liter, U46619 6.7 to 2,000 nmol/liter
  vasoactivity / constriction of arteries on IC injection of single agent: caused constriction of arteries in all 10 monkeys
Coronary arteries [2]
  coronary vasospasm on IC injection (no mechanical injury): vasospasm could not be found

## CC(=O)O[C@]1(C(C)=O)CC[C@H]2[C@@H]3C[C@H](C)C4=CC(=O)CC[C@]4(C)[C@H]3CC[C@@]21C [MPA, medroxyprogesterone acetate]
Coronary arteries [3]; 0.18 μg ACh IC
  diameter in dilator response to low dose ACh: 1.21±0.19 mm
Coronary arteries [3]; E2+MPA treated monkeys
  number of S+U challenges responded to with vasospasm (mean): 2.7±0.7
  number of S+U challenges responded to with vasospasm (range): 1-5
Coronary arteries [3]; S+U IC challenges, E2 implant plus P or MPA implant, N=6 per group
  Vasospasms (incidence): 6 of 6 and 6/6*
Coronary arteries [3]; S+U stimulation
  reduction of minimum (φ) from controls after S+U: 87%
Coronary arteries [3]; [5]
  constriction after IC S+U: 92%
  time constriction was sustained: 15 min
Coronary arteries [3]; angiographic example, one MPA monkey after S+U
  blood pressure nadir: 38/20
Coronary arteries [3]; before S + U
  Control DBP in mm Hg: 61 ± 5 mm Hg
  Control Heart rate in bpm: 134 ± 26 bpm
Coronary arteries [3]; minimum diameter 3 to 5 minutes after IC S + U
  S + U (φ) minimum: 0.15±0.04 mm
Coronary arteries [3]; [6]
  S + U stim DBP in min Hg: 26 ± 8 min Hg
  S + U stim SBP in mm Hg: 45 ± 11 mm Hg
  S + U stim heart rate in bpm: 69 ± 24 bpm
Coronary arteries [3]; proximal LAD or left circumflex diameter under control conditions, E2+P or E2+MPA group
  Control (φ) in mm: 1.15±0.10 mm
[4]; VMC from treated monkeys, 10 μM serotonin plus 100 nM U46619, FIG. 3
  whole cell Ca2+ (fluo 3) fluorescence after stimulation: significantly increased over control averaged over the whole cell at 1 minute and every subsequent time point
[4]; VMC from treated monkeys, 10 μM serotonin plus 100 nM U46619, FIG. 4
  peripheral-to-central Ca2+ ratio after stimulation: significantly decreased peripheral-to-central Ca^2+ ratio at 10 minutes and all subsequent times
[4]; VMC from treated monkeys, 10 μM serotonin plus 100 nM U46619, FIG. 5
  PKC signal after stimulation: significantly above the 0-min control at 3 minutes and all subsequent time points
[4]; VMC from treated monkeys, 10 μM serotonin plus 100 nM U46619, FIG. 6
  peripheral-to-central PKC ratio after stimulation: decreased significantly
[4]; VMC from treated monkeys, 10 μM serotonin plus 100 nM U46619, FIG. 7
  VMC contractions (cell width) after stimulation: significantly different from 0-min controls at 3 minutes and all subsequent times
[4]; based on comparisons of contractions, protocol limit 30 minutes
  duration of activation by serotonin and U46619: > 30 min
